Data from PubChem BioAssay AID1963975 (Molecular Pharmacology Branch, DTP, NCI, 2024).

Tested on: 624824-186-R-J2-PDC multicell spheroids, viability
Assay: Anticancer human tumor 624824-186-R-J2-PDC patient-derived colon adenocarcinoma cell line growth inhibition [PI3K]
Settings: for IC50: curve of first compound; for viability, T/C: stronger effect = lower value
In short: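 Complex 3D spheroids (cancer cells + endothelial HUVEC + mesenchymal stem cells); drug pairs of targeted agent x inavolisib/alpelisib/duvelisib/copanlisib; half-log series from ~Cmax, max 10 microM if Cmax unknown; endpoint viability.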

[1] = second compound 0.00316 µM, first compound 0.0316 µM
[2] = second compound 0.00316 µM, first compound 0.1 µM
[3] = second compound 0.01 µM, first compound 0.0316 µM
[4] = second compound 0.01 µM, first compound 0.1 µM
[5] = second compound 0.0316 µM, first compound 0.0316 µM
[6] = second compound 0.0316 µM, first compound 0.1 µM
[7] = second compound 0.0316 µM, first compound 0.316 µM
[8] = second compound 0.0316 µM, first compound 1 µM
[9] = second compound 0.0316 µM, first compound 3.16 µM
[10] = second compound 0.0316 µM, first compound 10 µM
[11] = second compound 0.1 µM, first compound 0.0316 µM
[12] = second compound 0.1 µM, first compound 0.1 µM
[13] = second compound 0.1 µM, first compound 0.316 µM
[14] = second compound 0.1 µM, first compound 1 µM
[15] = second compound 0.1 µM, first compound 3.16 µM
[16] = second compound 0.1 µM, first compound 10 µM
[17] = second compound 0.316 µM, first compound 0.0316 µM
[18] = second compound 0.316 µM, first compound 0.1 µM
[19] = second compound 0.316 µM, first compound 0.316 µM
[20] = second compound 0.316 µM, first compound 1 µM
[21] = second compound 0.316 µM, first compound 3.16 µM
[22] = second compound 0.316 µM, first compound 10 µM
[23] = second compound 1 µM, first compound 0.0316 µM
[24] = second compound 1 µM, first compound 0.1 µM
[25] = second compound 1 µM, first compound 0.316 µM
[26] = second compound 1 µM, first compound 1 µM
[27] = second compound 1 µM, first compound 3.16 µM
[28] = second compound 1 µM, first compound 10 µM
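Further: spheroids exposed to agents for 7 days before viability read.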
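Wherever viability, T/C is given: 100% = DMSO vehicle treated spheroids.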

## C#Cc1c(F)ccc2cc(O)cc(-c3ncc4c(N5CC6CCC(C5)N6)nc(OCC56CCCN5CC(F)C6)nc4c3F)c12 (stereo unspecified) + CC(Nc1ccc2c(c1)OCCn1cc(N3C(=O)OCC3C(F)F)nc1-2)C(N)=O
Second compound 0.00316 µM
  IC50: > 10 µM
Second compound 0.01 µM
  IC50: > 10 µM
Second compound 0.0316 µM
  IC50: > 10 µM
Second compound 0.1 µM
  IC50: > 10 µM
Second compound 0.316 µM
  IC50: > 10 µM
Second compound 1 µM
  IC50: > 10 µM
[1]
  viability, T/C: 90%
[2]
  viability, T/C: 98.3%
Second compound 0.00316 µM, first compound 0.316 µM
  viability, T/C: 123%
Second compound 0.00316 µM, first compound 1 µM
  viability, T/C: 87.4%
Second compound 0.00316 µM, first compound 3.16 µM
  viability, T/C: 105%
Second compound 0.00316 µM, first compound 10 µM
  viability, T/C: 106%
[3]
  viability, T/C: 116%
[4]
  viability, T/C: 103%
Second compound 0.01 µM, first compound 0.316 µM
  viability, T/C: 82.6%
Second compound 0.01 µM, first compound 1 µM
  viability, T/C: 89%
Second compound 0.01 µM, first compound 3.16 µM
  viability, T/C: 94.9%
Second compound 0.01 µM, first compound 10 µM
  viability, T/C: 86.5%
[5]
  viability, T/C: 91.6%
[6]
  viability, T/C: 116%
[7]
  viability, T/C: 79.2%
[8]
  viability, T/C: 102%
[9]
  viability, T/C: 106%
[10]
  viability, T/C: 82.2%
[11]
  viability, T/C: 121%
[12]
  viability, T/C: 88.1%
[13]
  viability, T/C: 80.6%
[14]
  viability, T/C: 82.5%
[15]
  viability, T/C: 93.3%
[16]
  viability, T/C: 100%
[17]
  viability, T/C: 101%
[18]
  viability, T/C: 76.2%
[19]
  viability, T/C: 79%
[20]
  viability, T/C: 85.1%
[21]
  viability, T/C: 86.8%
[22]
  viability, T/C: 81.8%
[23]
  viability, T/C: 78.1%
[24]
  viability, T/C: 80.3%
[25]
  viability, T/C: 82%
[26]
  viability, T/C: 94.4%
[27]
  viability, T/C: 93.2%
[28]
  viability, T/C: 91.1%

## CC(Cn1ccc(-c2ccc(C#N)c(Cl)c2)n1)NC(=O)c1cc(C(C)O)[nH]n1 (stereo unspecified) + CC(Nc1ncnc2nc[nH]c12)c1cc2cccc(Cl)c2c(=O)n1-c1ccccc1
Second compound 0.0316 µM
  IC50: > 10 µM
Second compound 0.1 µM
  IC50: > 10 µM
Second compound 0.316 µM
  IC50: > 10 µM
Second compound 1 µM
  IC50: > 10 µM
Second compound 3.16 µM
  IC50: > 10 µM
Second compound 10 µM
  IC50: > 10 µM
[5]
  viability, T/C: 98.2%
[6]
  viability, T/C: 90.6%
[7]
  viability, T/C: 96.1%
[8]
  viability, T/C: 106%
[9]
  viability, T/C: 99.2%
[10]
  viability, T/C: 113%
[11]
  viability, T/C: 92.1%
[12]
  viability, T/C: 93.6%
[13]
  viability, T/C: 114%
[14]
  viability, T/C: 108%
[15]
  viability, T/C: 98.5%
[16]
  viability, T/C: 115%
[17]
  viability, T/C: 111%
[18]
  viability, T/C: 102%
[19]
  viability, T/C: 84.7%
[20]
  viability, T/C: 97.5%
[21]
  viability, T/C: 107%
[22]
  viability, T/C: 100%
[23]
  viability, T/C: 105%
[24]
  viability, T/C: 106%
[25]
  viability, T/C: 95.2%
[26]
  viability, T/C: 94.5%
[27]
  viability, T/C: 80.5%
[28]
  viability, T/C: 92.4%
Second compound 3.16 µM, first compound 0.0316 µM
  viability, T/C: 112%
Second compound 3.16 µM, first compound 0.1 µM
  viability, T/C: 102%
Second compound 3.16 µM, first compound 0.316 µM
  viability, T/C: 85.5%
Second compound 3.16 µM, first compound 1 µM
  viability, T/C: 102%
Second compound 3.16 µM, first compound 3.16 µM
  viability, T/C: 110%
Second compound 3.16 µM, first compound 10 µM
  viability, T/C: 115%
Second compound 10 µM, first compound 0.0316 µM
  viability, T/C: 103%
Second compound 10 µM, first compound 0.1 µM
  viability, T/C: 106%
Second compound 10 µM, first compound 0.316 µM
  viability, T/C: 110%
Second compound 10 µM, first compound 1 µM
  viability, T/C: 115%
Second compound 10 µM, first compound 3.16 µM
  viability, T/C: 106%
Second compound 10 µM, first compound 10 µM
  viability, T/C: 107%

## CC(C)n1nc(-c2ccc3oc(N)nc3c2)c2c(N)ncnc21 + CC(Nc1ccc2c(c1)OCCn1cc(N3C(=O)OCC3C(F)F)nc1-2)C(N)=O
Second compound 0.00316 µM
  IC50: > 0.1 µM
Second compound 0.01 µM
  IC50: > 0.1 µM
Second compound 0.0316 µM
  IC50: > 0.1 µM
Second compound 0.1 µM
  IC50: > 0.1 µM
Second compound 0.316 µM
  IC50: > 0.1 µM
Second compound 1 µM
  IC50: > 0.1 µM
Second compound 0.00316 µM, first compound 0.000316 µM
  viability, T/C: 74%
Second compound 0.00316 µM, first compound 0.001 µM
  viability, T/C: 86.9%
Second compound 0.00316 µM, first compound 0.00316 µM
  viability, T/C: 95.5%
Second compound 0.00316 µM, first compound 0.01 µM
  viability, T/C: 92.1%
[1]
  viability, T/C: 89.2%
[2]
  viability, T/C: 87.5%
Second compound 0.01 µM, first compound 0.000316 µM
  viability, T/C: 106%
Second compound 0.01 µM, first compound 0.001 µM
  viability, T/C: 110%
Second compound 0.01 µM, first compound 0.00316 µM
  viability, T/C: 107%
Second compound 0.01 µM, first compound 0.01 µM
  viability, T/C: 86.8%
[3]
  viability, T/C: 105%
[4]
  viability, T/C: 87.2%
Second compound 0.0316 µM, first compound 0.000316 µM
  viability, T/C: 83.5%
Second compound 0.0316 µM, first compound 0.001 µM
  viability, T/C: 81.4%
Second compound 0.0316 µM, first compound 0.00316 µM
  viability, T/C: 67.6%
Second compound 0.0316 µM, first compound 0.01 µM
  viability, T/C: 78.1%
[5]
  viability, T/C: 91.9%
[6]
  viability, T/C: 90.4%
Second compound 0.1 µM, first compound 0.000316 µM
  viability, T/C: 88.3%
Second compound 0.1 µM, first compound 0.001 µM
  viability, T/C: 96.8%
Second compound 0.1 µM, first compound 0.00316 µM
  viability, T/C: 96.8%
Second compound 0.1 µM, first compound 0.01 µM
  viability, T/C: 68.4%
[11]
  viability, T/C: 84.5%
[12]
  viability, T/C: 92.5%
Second compound 0.316 µM, first compound 0.000316 µM
  viability, T/C: 74.9%
Second compound 0.316 µM, first compound 0.001 µM
  viability, T/C: 96.1%
Second compound 0.316 µM, first compound 0.00316 µM
  viability, T/C: 78.7%
Second compound 0.316 µM, first compound 0.01 µM
  viability, T/C: 72.3%
[17]
  viability, T/C: 82.2%
[18]
  viability, T/C: 75.4%
Second compound 1 µM, first compound 0.000316 µM
  viability, T/C: 97%
Second compound 1 µM, first compound 0.001 µM
  viability, T/C: 78.9%
Second compound 1 µM, first compound 0.00316 µM
  viability, T/C: 85%
Second compound 1 µM, first compound 0.01 µM
  viability, T/C: 88.5%
[23]
  viability, T/C: 84.1%
[24]
  viability, T/C: 72%
